The target of data set [1] is T1, 5-hydroxytryptamine receptor 2C (Homo sapiens) (UniProt P28335).
T1 sequence (whole entry): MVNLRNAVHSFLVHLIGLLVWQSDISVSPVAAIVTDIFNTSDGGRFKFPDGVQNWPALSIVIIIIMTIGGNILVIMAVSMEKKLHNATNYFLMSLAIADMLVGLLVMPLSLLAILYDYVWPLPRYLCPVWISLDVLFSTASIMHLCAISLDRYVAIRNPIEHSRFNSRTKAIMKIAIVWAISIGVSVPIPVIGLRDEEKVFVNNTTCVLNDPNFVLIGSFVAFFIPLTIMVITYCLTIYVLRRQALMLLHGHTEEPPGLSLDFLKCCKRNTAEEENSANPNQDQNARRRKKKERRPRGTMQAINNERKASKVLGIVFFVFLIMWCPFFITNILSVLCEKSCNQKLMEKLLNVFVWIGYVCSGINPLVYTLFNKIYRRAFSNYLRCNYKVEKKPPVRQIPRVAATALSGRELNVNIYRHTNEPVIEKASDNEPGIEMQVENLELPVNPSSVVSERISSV
The data set can be described thus: Agonist activity at unedited 5-HT2C receptor (unknown origin) expressed in HEK293 cells assessed as [3H]inositol phosphate accumulation at 10 uM after 2 hrs by scintillation counting relative to serotonin. In kind it is functional, cell-based.

Data set [2] deals with 5-HT2A receptor (Homo sapiens, UniProt P28223). Nature of the data set: Agonist activity at 5-HT2A receptor (unknown origin) expressed in HEK293 cells assessed as [3H]inositol phosphate accumulation at 10 uM after 2 hrs by scintillation counting relative to serotonin. Type of data set: cell-based. The conditions noted are these: HEK293 cells expressing 5-HT2A receptor.
In data set [3] the target is 5-HT2B receptor (Homo sapiens, UniProt P41595). Nature of the data set: Agonist activity at 5-HT2B receptor (unknown origin) expressed in HEK293 cells assessed as [3H]inositol phosphate accumulation at 10 uM after 2 hrs by scintillation counting relative to serotonin. Type of data set: cell-based. The note with it: HEK293 cells expressing 5-HT2B receptor.
Data set [4] relates to Rattus norvegicus. Nature of the data set: Antiobesity activity in Sprague-Dawley rat assessed as reduction in food intake at 1 mg/kg, po administered via oral gavage 30 mins prior to food presentation measured 60 mins post drug administration. Also on record: scale not given: the % may be the effect or the level left. In kind it is functional.
The target in data set [5] is T2, 5-hydroxytryptamine receptor 2B (Homo sapiens, UniProt P41595). Nature of the data set: Displacement of [125I]DOI from recombinant human 5-HT2B receptor expressed in HEK293 cell membranes after 1 hr by scintillation counting.
In data set [6] the target is T3, 5-hydroxytryptamine receptor 2C (Homo sapiens, UniProt P28335).
T3 sequence (P28335 whole entry): T1 sequence (whole entry)
Nature of the data set: Displacement of [125I]DOI from recombinant human 5-HT2C receptor expressed in HEK293 cell membranes after 1 hr by scintillation counting.

The subject of data set [7] is Rattus norvegicus. The data set can be described thus: Antiobesity activity in Sprague-Dawley rat assessed as reduction in food intake at 10 mg/kg, po administered via oral gavage 30 mins prior to food presentation measured 60 mins post drug administration. In kind it is functional. The arrangement: scale not given: the % may be the effect or the level left.
Data set [8] concerns Rattus norvegicus. Nature of the data set: Antiobesity activity in Sprague-Dawley rat assessed as reduction in food intake at 5 mg/kg, po administered via oral gavage 30 mins prior to food presentation measured 60 mins post drug administration. Type of data set: functional. The arrangement: scale not given: the % may be the effect or the level left.
Data set [9] has as its target T3, 5-hydroxytryptamine receptor 2C. The data set can be described thus: Agonist activity at unedited 5-HT2C receptor (unknown origin) expressed in HEK293 cells assessed as [3H]inositol phosphate accumulation after 2 hrs by scintillation counting. In kind it is functional, cell-based. The conditions noted are these: read-out: pEC50 (converted).
Data set [10] addresses T4, 5-hydroxytryptamine receptor 2A (Homo sapiens, UniProt P28223). The data set can be described thus: Displacement of [125I]DOI from recombinant human 5-HT2A receptor expressed in HEK293 cell membranes after 1 hr by scintillation counting. A general note: Displacement assays read how much labelled ligand stays bound in the presence of the test substance.
The target of data set [11] is T4, 5-hydroxytryptamine receptor 2A. Nature of the data set: Agonist activity at 5-HT2A receptor (unknown origin) expressed in HEK293 cells assessed as [3H]inositol phosphate accumulation after 2 hrs by scintillation counting. Type of data set: cell-based.
Data set [12] concerns the target T2, 5-hydroxytryptamine receptor 2B. Nature of the data set: Agonist activity at 5-HT2B receptor (unknown origin) expressed in HEK293 cells assessed as [3H]inositol phosphate accumulation after 2 hrs by scintillation counting. Type of data set: cell-based.
The subject of data set [13] is Rattus norvegicus. Nature of the data set: Antiobesity activity in Sprague-Dawley rat assessed as reduction in food intake at 3 mg/kg, po administered via oral gavage 30 mins prior to food presentation measured 60 mins post drug administration. Type of data set: functional. The arrangement: scale not given: the % may be the effect or the level left.

5-HT2B receptor, sequence (P41595 whole entry): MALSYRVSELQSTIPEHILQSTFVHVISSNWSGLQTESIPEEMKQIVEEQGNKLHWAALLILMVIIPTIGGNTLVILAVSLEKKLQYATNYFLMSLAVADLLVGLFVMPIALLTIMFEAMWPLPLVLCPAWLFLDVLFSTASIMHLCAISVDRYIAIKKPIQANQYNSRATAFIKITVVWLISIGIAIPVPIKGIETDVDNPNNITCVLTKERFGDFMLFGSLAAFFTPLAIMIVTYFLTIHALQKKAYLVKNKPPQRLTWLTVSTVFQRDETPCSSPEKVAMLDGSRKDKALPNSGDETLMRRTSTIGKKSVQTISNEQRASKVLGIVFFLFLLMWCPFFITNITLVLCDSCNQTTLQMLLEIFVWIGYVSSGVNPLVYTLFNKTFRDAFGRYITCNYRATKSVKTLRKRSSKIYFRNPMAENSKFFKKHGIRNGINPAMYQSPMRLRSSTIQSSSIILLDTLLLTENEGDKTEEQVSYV
T2 sequence (P41595 whole entry): as above
5-HT2A receptor, sequence (P28223 whole entry): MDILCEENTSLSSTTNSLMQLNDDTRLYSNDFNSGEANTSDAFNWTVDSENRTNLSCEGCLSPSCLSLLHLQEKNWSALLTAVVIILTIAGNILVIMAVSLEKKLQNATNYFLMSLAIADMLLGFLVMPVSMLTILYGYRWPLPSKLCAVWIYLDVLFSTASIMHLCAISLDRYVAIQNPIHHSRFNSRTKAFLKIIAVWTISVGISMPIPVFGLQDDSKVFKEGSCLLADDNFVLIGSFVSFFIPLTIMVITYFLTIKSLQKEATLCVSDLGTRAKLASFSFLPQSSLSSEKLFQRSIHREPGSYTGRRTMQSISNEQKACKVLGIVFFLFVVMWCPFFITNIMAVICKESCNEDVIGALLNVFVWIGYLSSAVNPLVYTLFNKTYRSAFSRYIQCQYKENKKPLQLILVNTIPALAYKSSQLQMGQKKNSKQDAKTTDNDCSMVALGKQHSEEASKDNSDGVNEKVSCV
T4 sequence (P28223 whole entry): as above

For `Clc1cccc(N2CCNCC2)c1` [CHLOROPHENYLPIPERAZINE], the Emax – broadly, the greatest response seen or fitted, relative to the assay's reference – in [1] was determined as 90%. Further, the Emax at 2 h, 10 µM in [2] was 12%; in data set [3], 22%.

As to `c1cc(CC2CCC2)c2c(c1)N1CCNCC1CC2` (configuration not stated), the results for the Activity in [4], in data set [7] and in [8] were 27%, 99% and 63%, respectively. Moreover, the Emax in data set [1] was determined as 106%. Also, the inhibition constant (Ki) (usually a dissociation constant, usually derived from enzyme kinetics or from competition with a known ligand) in data set [5] is 63.1 nM; in [6], 0.631 nM; in data set [10], 7.94 nM. For the same compound, the results for the EC50 in data set [9], in data set [11] and in [12] were 3.16 nM, 2000 nM and 2000 nM, respectively. The Emax at 2 h, 10 µM is 135% in data set [2] and 31% in data set [3].

Regarding `c1ccc(Oc2cccc3c2CCC2CNCCN32)cc1` (configuration not stated), the maximal response (Emax) in data set [1] stood at 112%. In addition, the EC50 was 100 nM in data set [9] and 6310 nM in data set [12]. Also, in data set [3], the Emax at 2 h, 10 µM was 94%.

Turning to `c1cc(OC2CCC2)c2c(c1)N1CCNCC1CC2` (configuration not stated), the Emax in data set [1] worked out at 98%. Also, the EC50 was 20 nM in data set [9] and 794 nM in data set [12]. The Emax at 2 h, 10 µM in data set [3] was 9%.

`CCCc1cccc2c1CCC1CNCCN21` (configuration not stated): the Activity in data set [4] was determined as 66%; in data set [13], 99%. Further, the Emax in [1] worked out at 101%. Besides, the Ki in [5] was 25.1 nM; in data set [6], 0.398 nM; in data set [10] it was 6.31 nM. The EC50 in data set [9] was 0.2 nM; in data set [11] it was 501 nM; in data set [12], 200 nM. The Emax at 2 h, 10 µM in data set [2] amounted to 104%; in data set [3], 80%.

For `COc1cccc2c1N1CCCNC[C@H]1CC2`, in data set [1], the Emax came out at 17%. In addition, the EC50 in data set [9] was 31.6 nM; in data set [12], 100 nM. Further, the Emax at 2 h, 10 µM in data set [3] was found to be 55%.

For the compound `Fc1ccc2c(c1)CCC1CNCCN21` (configuration not stated), the Emax in data set [1] is 96%. In addition, the results for the EC50 in [9] and in [12] were 3.16 nM and 126 nM, respectively. The Emax at 2 h, 10 µM in data set [3] is 44%.

Consider `Fc1ccc2c(c1Cc1ccccc1)CCC1CNCCN21` (configuration not stated), for which the Emax in data set [1] is 102%. Moreover, the Ki is 12.6 nM in data set [5], 0.398 nM in data set [6] and 0.631 nM in [10]. The EC50 in [9] is 1 nM; in data set [11], 100 nM; in data set [12] it was 631 nM. The Emax at 2 h, 10 µM in data set [2] came to 114%; in data set [3], 32%.

On to `CC1(C)Cc2cccc(Cl)c2N2CCNCC21` (configuration not stated), for which the Ki is 6.31 nM in [5], 794 nM in data set [6] and 2000 nM in [10]. Moreover, the EC50 is greater than 10000 nM in [9], greater than 10000 nM in [11] and 100 nM in [12]. Further, the Emax at 2 h, 10 µM in data set [3] was 84%.

As to `c1csc(Cc2cccc3c2CCC2CNCCN32)c1` (configuration not stated), the Emax in data set [1] is 106%. In addition, the Ki in data set [5] is 25.1 nM; in data set [6], 0.316 nM; in [10], 25.1 nM. In addition, the EC50 was 0.794 nM in data set [9], 79.4 nM in [11] and 398 nM in data set [12]. Further, the Emax at 2 h, 10 µM was 94% in [2] and 24% in data set [3].

Turning to `c1cc(Cc2ccc3c(c2)OCO3)c2c(c1)N1CCNCC1CC2` (configuration not stated), the Emax in data set [1] is 100%. The Ki in data set [5] was 126 nM; in data set [6], 0.794 nM; in [10] it was 1.58 nM. Moreover, the EC50 was 6.31 nM in data set [9], 200 nM in [11] and 3980 nM in data set [12]. Further, the Emax at 2 h, 10 µM is 64% in [2] and 26% in data set [3].

`Fc1ccc2c(c1Cl)N1CCNCC1CC2` (configuration not stated): in [1], the Emax was 94%. The EC50 in [9] was 6.31 nM; in data set [12], 2 nM. Further, the Emax at 2 h, 10 µM in data set [3] worked out at 12%.

In the case of `COc1ccc2c(c1)N1CCCNC[C@H]1CC2`, the Emax in data set [1] came out at 95%. The EC50 was 79.4 nM in data set [9] and 631 nM in data set [12]. Moreover, the Emax at 2 h, 10 µM in data set [3] was 37%.

As to `COc1ccc2c(c1)CC[C@@H]1CNCCCN21`, the Emax in data set [1] is 80%. For the same compound, the EC50 was 631 nM in data set [9] and 1260 nM in data set [12]. In addition, the Emax at 2 h, 10 µM in data set [3] is 76%.

Regarding `c1ccc(-c2cccc3c2CCC2CNCCN32)cc1` (configuration not stated), the Emax in [1] is 97%. Besides, the EC50 in [9] was 126 nM; in data set [12], 2510 nM. Besides, the Emax at 2 h, 10 µM in data set [3] was 72%.

As to `Fc1ccc2c(c1)N1CCNCC1CC2` (configuration not stated), the Emax in data set [1] turned out to be 100%. Besides, the EC50 in data set [9] is 0.794 nM; in data set [12] it was 31.6 nM. Also, the Emax at 2 h, 10 µM in [3] worked out at 38%.

As to `c1ccc2c(c1)CC[C@@H]1CCNCCCN21`, the Emax in data set [1] was 86%. Further, the EC50 in data set [9] is 63.1 nM; in [12] it was 501 nM. Also, the Emax at 2 h, 10 µM in data set [3] turned out to be 53%.

For the compound `c1ccc(Cc2cccc3c2CCC2CNCCN32)cc1` (configuration not stated), the Emax in data set [1] is 104%. Besides, the Ki in data set [5] is 39.8 nM; in data set [6], 0.631 nM; in data set [10], 1.58 nM. Also, the figures for the EC50 in data set [9], in data set [11] and in data set [12] were 1.58 nM, 126 nM and 2510 nM, respectively. The Emax at 2 h, 10 µM is 85% in data set [2] and 20% in [3].

For `CCCc1ccc2c(c1)CCC1CNCCN21` (configuration not stated), the Emax in data set [1] is 100%. Besides, the results for the EC50 in [9] and in [12] were 20 nM and 631 nM, respectively. Besides, the Emax at 2 h, 10 µM in data set [3] worked out at 9%.

Consider `Fc1ccc2c(c1)CC[C@@H]1CNCCCN21`, for which the Emax in data set [1] turned out to be 94%. Also, the EC50 in data set [9] is 25.1 nM; in data set [12], 631 nM. In addition, the Emax at 2 h, 10 µM in [3] came out at 59%.

The record behind these values is ChEMBL document CHEMBL3871286, “Tetrahydroquinoline-based tricyclic amines as potent and selective agonists of the 5-HT2C receptor” (Bioorg Med Chem Lett, 2016).
